Measured values published in US9173882B2, “Polycyclic heteroaryl substituted triazoles useful as Axl inhibitors” (Rigel Pharmaceuticals, Inc., priority 2008, dated 2015).

Biological target: T1, Axl (Homo sapiens, UniProt P30530)
T1 construct: endogenous in cells; host or cells: HeLa cells
T1 sequence (P30530 26-894): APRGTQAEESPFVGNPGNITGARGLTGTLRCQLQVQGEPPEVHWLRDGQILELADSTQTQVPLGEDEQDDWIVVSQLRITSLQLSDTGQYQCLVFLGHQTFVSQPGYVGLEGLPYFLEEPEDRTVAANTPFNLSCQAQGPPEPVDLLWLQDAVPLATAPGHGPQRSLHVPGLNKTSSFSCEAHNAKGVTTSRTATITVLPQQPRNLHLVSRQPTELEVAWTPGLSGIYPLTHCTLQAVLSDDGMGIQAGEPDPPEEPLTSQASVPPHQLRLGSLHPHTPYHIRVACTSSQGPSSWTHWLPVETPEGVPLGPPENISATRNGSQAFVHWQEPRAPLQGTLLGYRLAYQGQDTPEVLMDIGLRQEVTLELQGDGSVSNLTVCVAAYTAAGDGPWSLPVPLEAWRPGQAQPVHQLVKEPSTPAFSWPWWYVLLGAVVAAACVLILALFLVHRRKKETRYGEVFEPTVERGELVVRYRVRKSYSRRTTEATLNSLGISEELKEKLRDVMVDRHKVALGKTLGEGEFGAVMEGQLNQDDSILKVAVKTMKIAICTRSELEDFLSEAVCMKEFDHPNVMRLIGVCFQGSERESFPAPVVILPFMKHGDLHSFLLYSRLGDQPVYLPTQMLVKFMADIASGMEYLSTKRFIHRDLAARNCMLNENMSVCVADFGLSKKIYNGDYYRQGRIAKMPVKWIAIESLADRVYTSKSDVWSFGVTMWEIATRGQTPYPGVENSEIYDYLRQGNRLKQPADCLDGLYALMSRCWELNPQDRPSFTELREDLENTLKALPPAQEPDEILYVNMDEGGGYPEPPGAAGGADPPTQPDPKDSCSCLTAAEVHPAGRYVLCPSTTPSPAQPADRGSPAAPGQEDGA
Assay: Phospho-Akt in-cell Western assay
Type: cell-based
Settings: Hela cells, stimulated by Axl-antibody cross-linking, phospho-Akt chemiluminescence
Summary of the method: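 HeLa cells on poly-L-lysine, starved 24 h in 0.5% FCS with 500 ng/mL Axl/Fc, pre-treated with compound 1 hr at 37° C, then stimulated 5 min by cross-linked anti-Axl antibody clusters. Fixed cells probed for phospho-Akt by in-cell Western with HRP chemiluminescence, read within 10 min.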

Compound | IC50 (Table 1, formula (Ia)) [µM] | IC50 (Table 3, formula (II)) [µM]
CCC(CC)CN[C@H]1CCc2ccc(Nc3nc(N)n(-c4cc5c(nn4)-c4ccccc4CCC5)n3)cc2CC1 [Compound 41, 1-(6,7-dihydro-5H-benzo[6,7]cyclohepta[1,2-c]pyridazin-3-yl)-N^3-((7S)-7-(2-ethylbutylamino)-6,7,8,9-tetrahydro-5H-benzo[7]annulene-2-yl)-1H-1,2,4-triazole-3,5-diamine] | < 1 | –
CC=CCN[C@H]1CCc2ccc(Nc3nc(N)n(-c4cc5c(nn4)-c4ccccc4CCC5)n3)cc2CC1 [Compound 42, 1-(6,7-dihydro-5H-benzo[6,7]cyclohepta[1,2-c]pyridazin-3-yl)-N^3-((7S)-7-(but-2-enylamino)-6,7,8,9-tetrahydro-5H-benzo[7]annulene-2-yl)-1H-1,2,4-triazole-3,5-diamine] | < 1 | –
CC=CCN(CCCC)[C@H]1CCc2ccc(Nc3nc(N)n(-c4cc5c(nn4)-c4ccccc4CCC5)n3)cc2CC1 [Compound 43, 1-(6,7-dihydro-5H-benzo[6,7]cyclohepta[1,2-c]pyridazin-3-yl)-N^3-((7S)-7-(butyl(but-2-enyl)amino)-6,7,8,9-tetrahydro-5H-benzo[7]annulene-2-yl)-1H-1,2,4-triazole-3,5-diamine] | < 1 | –
CC(C)(C)OC(=O)N[C@H]1CCc2ccc(Nc3nc(N)n(-c4cc5c(nn4)-c4cccnc4CCC5)n3)cc2CC1 [Compound 44] | > 20 | –
Nc1nc(Nc2ccc(N3CCC(N4CCCC4)CC3)c(F)c2)nn1-c1cc2c(nn1)-c1cccnc1CCC2 [Compound 45, 1-(6,7-dihydro-5H-pyrido[2′,3′:6,7]cyclohepta[1,2-c]pyridazin-3-yl)-N^3-(3-fluoro-4-(4-(pyrrolidin-1-yl)piperidin-1-yl)phenyl)-1H-1,2,4-triazole-3,5-diamine] | – | > 20
Nc1nc(Nc2ccc3c(c2)CC[C@@H](N)CC3)nn1-c1cc2c(nn1)-c1cccnc1CCC2 [Compound 46, 1-(6,7-dihydro-5H-pyrido[2′,3′:6,7]cyclohepta[1,2-c]pyridazin-3-yl)-N^3-((7S)-7-amino-6,7,8,9-tetrahydro-5H-benzo[7]annulene-2-yl)-1H-1,2,4-triazole-3,5-diamine] | < 1 | –
CN(C)[C@H]1CCc2ccc(Nc3nc(N)n(-c4cc5c(nn4)-c4cccnc4CCC5)n3)cc2CC1 [Compound 47, 1-(6,7-dihydro-5H-pyrido[2′,3′:6,7]cyclohepta[1,2-c]pyridazin-3-yl)-N^3-((7S)-7-(dimethylamino)-6,7,8,9-tetrahydro-5H-benzo[7]annulene-2-yl)-1H-1,2,4-triazole-3,5-diamine] | 1 to 10 | –
CCN(CC)[C@H]1CCc2ccc(Nc3nc(N)n(-c4cc5c(nn4)-c4cccnc4CCC5)n3)cc2CC1 [Compound 48, 1-(6,7-dihydro-5H-pyrido[2′,3′:6,7]cyclohepta[1,2-c]pyridazin-3-yl)-N^3-((7S)-7-(diethylamino)-6,7,8,9-tetrahydro-5H-benzo[7]annulene-2-yl)-1H-1,2,4-triazole-3,5-diamine] | < 1 | –
CCCN(CCC)[C@H]1CCc2ccc(Nc3nc(N)n(-c4cc5c(nn4)-c4cccnc4CCC5)n3)cc2CC1 [Compound 49, 1-(6,7-dihydro-5H-pyrido[2′,3′:6,7]cyclohepta[1,2-c]pyridazin-3-yl)-N^3-((7S)-7-(dipropylamino)-6,7,8,9-tetrahydro-5H-benzo[7]annulene-2-yl)-1H-1,2,4-triazole-3,5-diamine] | < 1 | –
Nc1nc(Nc2ccc3c(c2)CC[C@@H](N(CC2CC2)CC2CC2)CC3)nn1-c1cc2c(nn1)-c1cccnc1CCC2 [Compound 50, 1-(6,7-dihydro-5H-pyrido[2′,3′:6,7]cyclohepta[1,2-c]pyridazin-3-yl)-N^3-((7S)-7-(di(cyclopropylmethyl)amino)-6,7,8,9-tetrahydro-5H-benzo[7]annulene-2-yl)-1H-1,2,4-triazole-3,5-diamine] | < 1 | –
CC(C)CCN(CCC(C)C)[C@H]1CCc2ccc(Nc3nc(N)n(-c4cc5c(nn4)-c4cccnc4CCC5)n3)cc2CC1 [Compound 51, 1-(6,7-dihydro-5H-pyrido[2′,3′:6,7]cyclohepta[1,2-c]pyridazin-3-yl)-N^3-((7S)-7-(di(3-methylbutyl)amino)-6,7,8,9-tetrahydro-5H-benzo[7]annulene-2-yl)-1H-1,2,4-triazole-3,5-diamine] | 1 to 10 | –
Nc1nc(Nc2ccc3c(c2)CC[C@@H](NC2CCC2)CC3)nn1-c1cc2c(nn1)-c1cccnc1CCC2 [Compound 52, 1-(6,7-dihydro-5H-pyrido[2′,3′:6,7]cyclohepta[1,2-c]pyridazin-3-yl)-N^3-((7S)-7-(cyclobutylamino)-6,7,8,9-tetrahydro-5H-benzo[7]annulene-2-yl)-1H-1,2,4-triazole-3,5-diamine] | < 1 | –
Nc1nc(Nc2ccc3c(c2)CC[C@@H](NC2CCCCC2)CC3)nn1-c1cc2c(nn1)-c1cccnc1CCC2 [Compound 53, 1-(6,7-dihydro-5H-pyrido[2′,3′:6,7]cyclohepta[1,2-c]pyridazin-3-yl)-N^3-((7S)-7-(cyclohexylamino)-6,7,8,9-tetrahydro-5H-benzo[7]annulene-2-yl)-1H-1,2,4-triazole-3,5-diamine] | < 1 | –
CC(C)N[C@H]1CCc2ccc(Nc3nc(N)n(-c4cc5c(nn4)-c4cccnc4CCC5)n3)cc2CC1 [Compound 54, 1-(6,7-dihydro-5H-pyrido[2′,3′:6,7]cyclohepta[1,2-c]pyridazin-3-yl)-N^3-((7S)-7-((methylethyl)amino)-6,7,8,9-tetrahydro-5H-benzo[7]annulene-2-yl)-1H-1,2,4-triazole-3,5-diamine] | < 1 | –
